Where “and” joins values, the source holds several entries; their conditions need not be identical. Identical values can stand only once.
tested on: P. falciparum 3D7 growth, pLDH absorbance; experiment: P. falciparum 3D7 growth inhibition, dose response, strain 3D7 (AID 2305)

| SMILES | IC50 |
| --- | --- |
| O=C(N[C@@H](CC1CCCCC1)C(=O)NCCN1CCCCC1)c1ccc(O)c(-c2cccc(C(F)(F)F)c2)c1 | 830 nM |
| CCOc1ccc(OCC(=O)Nc2nc(-c3ccc(OC)cc3)c(C)s2)cc1 | 220 nM |
| COc1cc(NCCCNCC2c3ccccc3Oc3ccccc32)nc2ccccc12 | 330 nM |
| O=C(NCC1CCN(Cc2cccc(C(F)(F)F)c2)C1)c1cc(-c2cccc(C(F)(F)F)c2)cs1 (stereo not drawn) | 610 nM |
| CSc1sc(NC(=O)Nc2cccc(C(F)(F)F)c2)cc1C#N | 910 nM |
| CN(C)c1ccc(-c2ccc(C(=O)NC3CCN(Cc4ccc(C(C)(C)C)cc4)CC3)s2)cc1 | 970 nM |
| Cc1ccc(CNC(=O)[C@H](CC(C)C)Nc2cc(C)nc(NCc3ccccc3C)n2)cc1 | 950 nM |
| Clc1ccc2c(Cl)c(CNCCCNc3nc4ccccc4[nH]3)[nH]c2c1 | 220 nM |
| OC1CCCN(Cc2cccc(-c3ccc(-c4nc5ccc(C(F)(F)F)cc5[nH]4)cc3)c2)C1 (stereo not drawn) | 690 nM |
| O=S(=O)(/C=C/c1ccccc1)N(Cc1ccc(-c2ccc(CNCCOc3ccccc3)cc2)cc1)CC1CCCCN1 (stereo not drawn) | 740 nM |
| Nc1nc(N)c2c(Cc3ccccc3)cccc2n1 | 830 nM |
| O=C(/C=C/c1cccc2ccccc12)NC1CCC(CN2CCC(c3c[nH]c4ccccc34)CC2)CC1 (stereo not drawn) | 740 nM and 670 nM |
| CN1CCN(c2ccnc3ccc(NC(=O)Nc4c(Cl)cccc4Cl)cc23)CC1 | 880 nM |
| COc1cc(C2CCCCC2)c(OC)cc1CC1c2cc(O)c(Cl)cc2CCN1C (stereo not drawn) | 450 nM |
| CCOCCCNc1nc2cc(OC)c(OC)cc2c2nc(-c3ccccc3)nn12 | 210 nM |
| O=C(NCC(CCN1CCC(c2c[nH]c3ccccc23)CC1)c1ccccc1)Nc1ccc(Cl)c(Cl)c1 (stereo not drawn) | 830 nM |
| CC(=O)NCCNc1nccc(N2CCc3ncnc(Nc4ccc(OCc5cccc(F)c5)c(Cl)c4)c3C2)n1 | 130 nM |
| Cc1cccc(-c2cccc3c(NC(=O)N4CCc5cc6nccc(N7CCN8CCC[C@H]8C7)c6cc54)cccc23)n1 | 920 nM |
| CCOc1c(OC)ccc2c1CCN(CCN1CCC(CNC(=O)c3ccc(-c4ccc(C#N)cc4)cc3)CC1)C2 | 1080 nM |
| Cc1cccc2[nH]c(-c3cccc(-c4ccc(NC(=O)Nc5ccc(Cl)cc5)cc4)c3)nc12 | 200 nM |
| CCC[C@@H]([C@@H](CC1CCCCC1)C(=O)N[C@H](C(=O)Nc1nccs1)[C@H](C)O)N(O)C=O | 150 nM |
| Cc1c(-c2ccccc2)ccc2[nH]cc(CC#N)c12 | 700 nM |
| Cc1cc2c(cc1C(F)(F)F)N(C(=O)Nc1ccc(OCCN(C)C)c(C(F)(F)F)c1)CC2 | 910 nM |
| CC1CCCCN1S(=O)(=O)c1ccc(NC(=O)c2cc(-c3ccccc3O)n[nH]2)cc1 (stereo not drawn) | 760 nM |

| SMILES | IC50 |
| --- | --- |
| NC1CCCN(Cc2cccc(-c3ccc(-c4nc5ccc(C(F)(F)F)cc5[nH]4)cc3)c2)C1 (stereo not drawn) | 520 nM |
| CCS(=O)(=O)c1ccc(-c2cnc3[nH]cc(-c4ccc(N)cc4)c3c2)cc1 | 850 nM |
| COc1ccc(Nc2ccnc3cc(Cl)ccc23)cc1OC | 1120 nM |
| NC(=O)c1ccccc1Nc1nc(Nc2ccn[nH]2)ncc1Cl | 960 nM |
| c1ccn2c(-c3ncnc(NCc4ccc5c(c4)CCO5)n3)cnc2c1 | 1190 nM |
| Cc1[nH]c(C)c(-c2ccc(CCc3ccc(F)cc3F)cc2)c(=O)c1Br | 10 nM |
| Cc1ccc(NC(=O)NC2CCN(CCCCCNC(=O)/C=C/c3ccc(Cl)c(Cl)c3)CC2)cc1C | 730 nM |
| COc1ccc2c(NN=Cc3ccccc3[N+](=O)[O-])cc(C)nc2c1 | 720 nM |
| COc1ccccc1/C=C/C(=O)N(C)C1CCN(CCCCCNC(=O)/C=C/c2ccc(Cl)c(Cl)c2)CC1 | 440 nM |
| Cc1cc(NCCc2ccccc2)nc(/N=C(\N)Nc2cccc([N+](=O)[O-])c2)n1 | 140 nM |
| COc1cc(OC)cc(C(=O)N2CCOC(CCN3CCC(c4ccccc4)CC3)(c3ccc(Cl)c(Cl)c3)C2)c1 (stereo not drawn) | 440 nM |
| Fc1cccc(Cn2ncc3cc(Nc4ncnc5sc(C#Cc6ncc[nH]6)cc45)ccc32)c1 | 1800 nM |
| O=C(NCCNc1ccnc(Nc2ccc(F)cc2)n1)Nc1ccccc1F | 760 nM |
| COc1ccc(CC(C)NCC(O)c2cccc(Br)c2)cc1 (stereo not drawn) | 960 nM |
| Cc1cc(Nc2ccc(OCc3ccccc3Cl)cc2)c2cc(Cl)ccc2n1 | 430 nM |
| O=S(=O)(Nc1cccc(CCN2CCC(N3CCCCC3)CC2)c1)c1ccc(Oc2ccccc2)nc1 | 930 nM |
| O=C(NC1CCCCCC1)C1CCCN(C(=O)c2ccc(O)c(-c3ccc(Cl)c(Cl)c3)c2)C1 (stereo not drawn) | 760 nM |
| FC(F)(F)c1ccc2nc(-c3ccc(-c4ccc(CN5CCN(c6cnccn6)CC5)cc4)s3)[nH]c2c1 | 650 nM |
| CN(C)C(C)(C)CN(Cc1ccc(-c2ccc(C(F)(F)F)cc2)cc1)C(=O)Cn1c(CCc2cccc(F)c2F)nc(=O)c2ccccc21 | 830 nM |
| CCN(CC)CCN(Cc1ccc(-c2ccc(Cl)cc2)cc1)C(=O)Cn1cc(CN(C)C)c(=O)nc1SCc1ccc(F)cc1 | 750 nM |
| O=C(/C=C/c1ccc(C(F)(F)F)cc1)NCCCCCN1CCCN(C(=O)Nc2cccc(Cl)c2)CC1 | 990 nM |
| CC(C)c1cc(Oc2c(I)cc(CCCc3ncc[nH]3)cc2I)ccc1O | 1120 nM |
| CN(C)CCNC(=O)c1ccc(-c2cnc3ccc(NCc4ccc(Cl)c(Cl)c4)nn23)cc1 | 910 nM |
| CCC(C)CN1CCCN(c2ccc(NC(=O)c3cccs3)cc2)CC1 (stereo not drawn) | 800 nM |

Source: PubChem BioAssay AID2305 (GlaxoSmithKline (GSK), 2010)
